From US10279082B2, “Implant with an bioactive coating and method for providing the same” (Biomet Deutschland GmbH, priority 2015, dated 2019)

Key:
[1] = Wiping test for adherence of the coating (glass substrate, polyester cloth); type: physicochemical; conditions: fosfomycin-Ca about 430 μg/cm^2, rifampicin about 60 μg/cm^2, wiped with polyester cloth
Description: A substrate, here a glass substrate, was coated at first with a fosfomycin-Ca monohydrate suspension. Subsequently, a part of the glass substrate coated with fosfomycin-Ca was partially coated with rifampicin.
The completely coated substrate was then wiped using a polyester cloth.

[2] = system: intracellular staphylococci; conditions: local administration of a pharmaceutical composition comprising rifampin; cited from earlier work

SMILES	adherence of coating after wiping [1]	elimination of intracellular staphylococci [2]
C[C@@H]1O[C@@H]1P(=O)([O-])[O-].O.[Ca+2] [fosfomycin-Ca, fosfomycin-calcium-monohydrate]	largely removed	
CO[C@H]1/C=C/O[C@@]2(C)Oc3c(C)c(O)c4c(O)c(c(/C=N/N5CCN(C)CC5)c(O)c4c3C2=O)NC(=O)/C(C)=C\C=C\[C@H](C)[C@H](O)[C@@H](C)[C@@H](O)[C@@H](C)[C@H](OC(C)=O)[C@@H]1C [rifampin]		reduced within three days
